{"source": "patent US20170224833A1", "about": "“SELF-ASSEMBLING MOLECULES THAT ACCUMULATE IN ACIDIC TUMOR MICROENVIRONMENTS” (OHIO STATE INNOVATION FOUNDATION, priority 2014, published 2017)", "test": "MRI r1 relaxivity measurement, 1.5 Tesla", "format": "physicochemical", "details": "500 μM, 1.5 T", "method": "An MR relaxometry phantom was built by fixing 5 mm NMR sample tubes containing PA samples at a concentration of 500 μM and pH values 4 and 10 in a 600 ml beaker filled with deionized water. The samples also contained 150 mM NaCl and 2.2 mM CaCl2. The phantom was scanned on a 1.5 Tesla Signa Excite MRI scanner using an 8-channel phased-array head coil (GE Healthcare, Milwaukee, Wis., USA). R relaxometry data were acquired using an Inversion Recovery Fast Spin-Echo (IR-FSE) sequence with the following parameters: inversion time TI=50/100/200/400/600/800/1200/1600/3200 ms; repetition time TR=8000 ms; echo time TE=11 ms; echo train length=10; 90° flip angle; 100×100 mm^2 field-of-view (FOV); 0.5 mm in-plane resolution; 2 mm slice thickness; single coronal slice placed at the center of the phantom. Sample longitudinal relaxation rates (R1) were calculated by fitting the MR signal intensities observed at different TIs (S(TI)) to a three parameter model [Lu et al., MRM 2004]:\nS(TI)=|S0×(1−C×exp(−TI×R1))|\nWhere S0 is the equilibrium signal, C is a constant accounting for imperfect inversion of magnetization. The r1 relaxivity was calculated as the slope in the linear relationship between sample concentrations and their R1 relaxation rates.", "note": "*: point of attachment. Palmitoyl = CCCCCCCCCCCCCCCC(=O)*", "data": [{"substance": "Palmitoyl-IAAAEEEEK(DO3A:Gd)-NH2 (Palmitoyl-IAAAEEEEK(DO3A)-NH2; also: DO3A chelates Gd) [PA5]", "values": [{"measurement": "relaxivity of water protons", "setting": "pH 4 (nanofibers)", "result": 8.3, "unit": "mM⁻¹ s⁻¹"}, {"measurement": "relaxivity of water protons", "setting": "pH 10 (spherical micelles)", "result": 6.6, "unit": "mM⁻¹ s⁻¹"}]}]}
